Results reported in patent US11046743B2 (Antaros Medical AB, priority 2015, dated 2021).

Assay: Chemical stability in buffer, UPLC purity
Format: physicochemical

Purity after 7 days (pH 4.6, 4° C.) | Purity after 14 days (pH 4.6, 4° C.) | Purity after 7 days (pH 4.6, 25° C.) | Purity after 14 days (pH 4.6, 25° C.) | Purity after 7 days (pH 4.6, 40° C.) | Purity after 14 days (pH 4.6, 40° C.) | Purity after 7 days (pH 7.4, 4° C.) | Purity after 14 days (pH 7.4, 4° C.) | Purity after 7 days (pH 7.4, 25° C.) | Purity after 14 days (pH 7.4, 25° C.) | Purity after 7 days (pH 7.4, 40° C.) | Purity after 14 days (pH 7.4, 40° C.) | Substance
100% | 99% | 99% | 97% | 94% | 84% | 97% | 94% | 81% | 67% | 47% | 33% | Tza-S-Q-G-T-F-T-S-D-I-S-K-Q-Nle-ESRRAQEFIEWLLATGPESGAPPPSC(VS-DO3A(Ga))-NH2 [SEQ ID NO 36]
100% | 99% | 97% | 97% | 92% | 91% | 98% | 96% | 90% | 84% | 64% | 53% | Tza-S-Q-G-T-F-T-S-D-I-S-K-Q-Nle-ESRRAQEFIEWLLATGPESGAPPPSC(VS-DO3A)-NH2 [SEQ ID NO 35]
100% | 99% | 99% | 97% | 94% | 84% | 97% | 94% | 81% | 67% | 47% | 33% | Tza-SQGTFTSDYSKQLDEQRAQEFIEWLLATGPESGAPPPSC(VS-DO3A(Ga))-NH2 [SEQ ID NO 50]
100% | 99% | 97% | 97% | 92% | 91% | 98% | 96% | 90% | 84% | 64% | 53% | Tza-SQGTFTSDYSKQLDEQRAQEFIEWLLATGPESGAPPPSC(VS-DO3A)-NH2 [SEQ ID NO 49]
100% | 99% | 99% | 97% | 94% | 84% | 97% | 94% | 81% | 67% | 47% | 33% | Tza-SQGTFTSDYSKQLESRRAQEFIEWLLAGGPESGAPPPSC(VS-DO3A(Ga))-NH2 [SEQ ID NO 8]
100% | 99% | 97% | 97% | 92% | 91% | 98% | 96% | 90% | 84% | 64% | 53% | Tza-SQGTFTSDYSKQLESRRAQEFIEWLLAGGPESGAPPPSC(VS-DO3A)-NH2 [SEQ ID NO 6]
